Data from article PMC9554980, “Antimalarial potential of compounds isolated from Mammea siamensis T. Anders. flowers: in vitro and molecular docking studies” (BMC Complementary Medicine and Therapies, 2022).
Where two headings read alike, the source gives them in different places.

What was measured:
Format in all cases: cell-based
[1] = system: chloroquine-resistant P. falciparum (K1) strain; experiment: In vitro antimalarial activity, pLDH assay; details: Plasmodium falciparum
Experimental: P. falciparum was cultured according to the method of Trager and Jensen with some modifications. The parasites were cultured in noninfected human red blood cells (2% hematocrit) using RPMI 1640 medium that was supplemented with 0.5% Albumax II, 10 µg/ml hypoxanthine, 2.5 µg/ml gentamicin, 4.8 mg/ml HEPES and buffered with 2 mg/ml sodium bicarbonate as described previously in our previous study. All the chemicals and reagents used for culturing were purchased from Sigma–Aldrich, New Delhi, India and Gibco, Waltham, MA USA. The culture was maintained at 37 °C in a CO2 incubator. The culture medium was changed, and Giemsa-stained slides were prepared daily to monitor parasitemia.
The in vitro antimalarial activity of the isolated compounds was assessed on cultured P. falciparum using the Plasmodium lactate dehydrogenase (pLDH) assay described by Makler with some modifications. Briefly, the compounds were individually dissolved in DMSO to obtain a stock solution of 1 mM, and the solution was then diluted to a final working concentration of 0.78–100 µM. […] Parasitized red blood cells (2% hematocrit, 2% parasitemia) were aliquoted into a 96-well cell culture plate, and then the infected red cells were exposed. The tested compound was added to 96-well plates and incubated at 37 °C for 72 h in a CO2 incubator. At the end of incubation, the plates were subjected to three freeze/thaw cycles (frozen at -20 °C and thawed at 37 °C) for complete hemolysis. The lysed cells were transferred to a new 96-well plate that contained a mixture of 100 µl of Malstat reagent and 20 µl of nitroblue tetrazolium/phenazine ethosulfate solution (Calbiochem®, Sigma–Aldrich, New Delhi, India) and were incubated for 1 h in the dark. The experiments were performed in triplicate. These solutions were used to determine the activity of the lactate dehydrogenase (LDH) enzyme in the cultures. When LDH was present, a purple product was formed, and the optical density was measured using a microplate reader at a wavelength of 650 nm. The concentrations at which 50% inhibition of parasite growth (IC50) was calculated using a nonlinear regression curve contained in GraphPad PRISM version 6 (GraphPad Software, Inc., La Jolla, CA, USA).

[2] = In vitro cytotoxicity, MTT assay, Vero cells; details: African green monkey, 5 to 80 µM, read-out: CC50 Vero cell
Experimental: (§1) The toxicity of isolated compounds was assessed by a 3-(4,5-dimethythiazol2-yl)-2,5-diphenyl tetrazolium bromide (MTT) assay according to a previous method. Briefly, Vero cells, a normal mammalian cell line or HepG2 human hepatoma cell line, were seeded into 96-well plates (10^4 cell/ml) and incubated for 24 h at 37 °C with 5% CO2. Cells were then treated with various concentrations of the tested compounds ranging from 5 to 80 µM, and the final concentration of DMSO in the tested dilutions was not higher than 1% for 48 h at 37 °C with 5% CO2. Subsequently, MTT solution was added to each well, and the plate was incubated for 2 h in a CO2 incubator. The medium was then removed, and 100 µl of DMSO was added to each well. The negative control was performed using growth medium alone instead of the tested compounds, while doxorubicin (Sigma–Aldrich, New Delhi, India) was used as the positive toxic control. The assay was performed in triplicates. Finally, the optical density was determined using a microplate reader at a wavelength of 590 nm. The 50% cytotoxic concentration (CC50) was calculated using a nonlinear regression curve contained in GraphPad PRISM version 6 (GraphPad Software, Inc., La Jolla, CA, USA).

[3] = In vitro cytotoxicity, MTT assay, HepG2 cells; details: human, 5 to 80 µM
Experimental: as §1

[4] = P. falciparum K1, pLDH assay, 72 h, mean ± S.D. of three determinations, read-out: IC50 K1

| Compound | IC50 ([1]; P. falciparum K1, pLDH assay, 72 h, positive control, IC50 unit expressed in nM (footnote), read-out: IC50 K1 (positive control)) [nM] | IC50 [1, 4] [nM] | CC50 at 48 h ([2]; Vero cells) [µM] | CC50 at 48 h ([3]; HepG2 cells) [µM] | IC50 ([1]; K1, 72 h, read-out: IC50 K1) [nM] | CC50 at 48 h [2] [µM] | CC50 at 48 h [3] [µM] |
| --- | --- | --- | --- | --- | --- | --- | --- |
| C=C(C)[C@@H]1CC[C@]2(C)CC[C@]3(C)[C@H](CC[C@@H]4[C@@]5(C)CC[C@H](O)C(C)(C)[C@@H]5CC[C@]43C)[C@@H]12 [Compound 1, lupeol] |  | 18800 ± 3450 | > 80 | 29.3 ± 1.47 |  |  |  |
| O=c1c2ccccc2oc2c(O)cccc12 [Compound 3, 4-hydroxyxanthone] |  |  |  |  | 68600 ± 2540 | 48.1 ± 1.68 | 46.1 ± 1.66 |
| O=c1c2cc(O)ccc2oc2cccc(O)c12 [Compound 4, 1,7-dihydroxyxanthone] |  |  | 7.9 ± 0.9 | 13.3 ± 1.12 | 41700 ± 2230 |  |  |
| O=c1c2ccc(O)cc2oc2cccc(O)c12 [Compound 8, 1,6-dihydroxyxanthone] |  | 47900 ± 5160 |  |  |  | > 80 | > 80 |
| O=c1c2ccccc2oc2ccc(O)cc12 [Compound 12, 2-hydroxyxanthone] |  |  |  |  | 75000 ± 880 | > 80 | > 80 |
| COc1cccc2c1C(=O)c1c(O)c3c(c(O)c1C2=O)C[C@@](O)(C(=O)CO)C[C@@H]3O[C@H]1C[C@H](N)[C@H](O)[C@H](C)O1 [Doxorubicin, reference compound] |  |  | 1.46 ± 0.16 | 1.11 ± 0.05 |  |  |  |

More lines, main results first:

| IC50 ([1]; P. falciparum K1, pLDH assay, 72 h, positive control, IC50 unit expressed in nM (footnote), read-out: IC50 K1 (positive control)) [nM] | IC50 [1, 4] [nM] | Compound | CC50 at 48 h ([2]; Vero cells) [µM] | CC50 at 48 h ([3]; HepG2 cells) [µM] | IC50 ([1]; K1, 72 h, read-out: IC50 K1) [nM] | CC50 at 48 h [2] [µM] | CC50 at 48 h [3] [µM] |
| --- | --- | --- | --- | --- | --- | --- | --- |
| 0.53 ± 0.04 |  | C[C@H]1[C@H](OC(=O)CCC(=O)O)O[C@@H]2O[C@@]3(C)CC[C@H]4[C@H](C)CC[C@@H]1[C@@]24OO3 [Artesunate, reference compound] |  |  |  |  |  |
|  | 21000 ± 3560 | COc1ccc2c(=O)c3cccc(O)c3oc2c1O [Compound 2, 4,5-dihydroxy-3-methoxyxanthone] | > 80 | > 80 |  |  |  |
|  | 45600 ± 3120 | CC(C)CC(=O)c1c2c(c3oc(=O)cc(-c4ccccc4)c3c1O)C=CC(C)(C)O2 [Compound 6, mammea A/AA cyclo D] | > 80 | > 80 |  |  |  |
|  | 49890 ± 420 | CC(C)CC(=O)c1c2c(c3oc(=O)cc(-c4ccccc4)c3c1O)C[C@H](C(C)(C)O)O2 [Compound 7, mammea A/AA cyclo F] | > 80 | > 80 |  |  |  |
|  | 9570 ± 1590 | COc1cc2c(=O)c3c(O)cccc3oc2c(OC)c1OC [Compound 9, 1-hydroxy-5,6,7-trimethoxyxanthone] | > 80 | > 80 |  |  |  |
|  | 15500 ± 2630 | O=c1c2cccc(O)c2oc2c(O)c(O)ccc12 [Compound 10, 3,4,5-trihydroxyxanthone] | > 80 | > 80 |  |  |  |
|  | 29300 ± 4440 | COc1cccc2oc3c(O)cccc3c(=O)c12 [Compound 11, 5-hydroxy-1-methoxyxanthone] | > 80 | > 80 |  |  |  |
|  | 22300 ± 1670 | COc1ccc2c(=O)c3c(O)cccc3oc2c1O [Compound 13, 1,5-dihydroxy-6-methoxyxanthone] | > 80 | 30.5 ± 1.49 |  |  |  |
